Laboratory results as given in publication PMC6158189, “A pharmacological probe identifies cystathionine β-synthase as a new negative regulator for ferroptosis” (Cell Death & Disease, 2018).
“And” between values parts separate entries of the source, which are not always exact repeats. Identical values can stand only once.

Tests used:
hCBS-FL = molecular target: T1, hCBS-FL (Homo sapiens, UniProt P35520); assay: purified hCBS full-length enzyme assay; assay type: biochemical; set-up: human CBS or hCSE full-length (CBS-FL or CSE) was subcloned into pGEX-KG, pcDNA3 or pCDH vector; GST (N); made in house; host or cells: E. coli BL21; settings: standard conditions
T1 sequence (P35520 1-551): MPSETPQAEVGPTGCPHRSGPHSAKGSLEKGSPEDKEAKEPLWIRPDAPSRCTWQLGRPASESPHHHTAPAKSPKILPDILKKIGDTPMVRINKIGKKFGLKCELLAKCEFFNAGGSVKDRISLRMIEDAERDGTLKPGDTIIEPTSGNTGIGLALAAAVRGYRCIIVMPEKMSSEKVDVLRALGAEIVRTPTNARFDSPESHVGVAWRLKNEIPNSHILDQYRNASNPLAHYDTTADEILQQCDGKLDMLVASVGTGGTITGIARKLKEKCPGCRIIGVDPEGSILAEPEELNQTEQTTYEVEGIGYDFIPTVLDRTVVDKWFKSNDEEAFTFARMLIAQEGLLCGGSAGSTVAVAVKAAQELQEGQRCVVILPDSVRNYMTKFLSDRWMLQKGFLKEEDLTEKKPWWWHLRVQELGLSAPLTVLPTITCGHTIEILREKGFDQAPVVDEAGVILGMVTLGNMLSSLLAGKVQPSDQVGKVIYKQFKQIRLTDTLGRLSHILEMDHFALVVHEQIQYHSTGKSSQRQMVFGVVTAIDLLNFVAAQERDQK
Method: The IC50 values of CH004 for hCBS-413, hCBS-413 mutants, hCBS-FL, hCSE or hDDC were determined according to the standard assay conditions otherwise indicated.
^2The IC50 were determined for hCBS-FL.

HEK293T cells [1] = assay: cell cycle distribution (propidium iodide, flow cytometry); assay type: cell-based; settings: 3 μM, 12 h
Method: (§1) Fig. 4 CH004 arrests the cell cycle at the S phase. a CH004 reduces the cell viability of HEK293T and HepG2 cells. HEK293T or HepG2 cells were treated with indicated concentrations of CH004 for 24 h before the cell number was analyzed using the CellTiter96® Aqueous One Solution Cell Proliferation Assay (Promega, Materials and Methods). The means at each concentration of one representative experiment are shown as percentages of DMSO (control, 100%). Means ± SDs (n = 3). b Overexpression of hCBS or knock-down of hCBS counteracts the growth inhibition exerted by CH004 in HEK293T cells. Indicated HEK293T stable cell lines were treated with the CH004 or DMSO for 24 h. Then, the cell viability was quantified with the CellTiter 96® Aqueous One Solution Cell Proliferation Assay under the standard protocol (Promega). […] The efficacy for CBS overexpression and knock-down in HEK293T cells was determined by Western blotting using an anti-CBS antibody (3E1, 1:2000; Abnova). c CH004 induces cell death in HEK293T and HepG2 cells. […] HEK293T cells were incubated with indicated compounds for 12 h, and the DNA content was quantified with propidium iodide to analyze the cell cycle distribution by flow cytometry (e). The cell cycle distributions for HEK293T-shNT and HEK293T-shCBS cells were accordingly analyzed and are shown in f. […]

HEK293T cells [2] = assay: cell death, FITC Annexin V kit, flow cytometry; assay type: cell-based; settings: 40 μM, 12 h
Method: as §1

In the case of `Cn1nc(Cc2ccccc2)nc2c(=O)n(C)c(=O)nc1-2` [CH004, 3-benzyl-1,6-dimethylpyrimido[5,4-e][1,2,4]triazine-5,7(1H,6H)-dione], the IC50 (hCBS-FL) is reported as ~0.59 µM and 0.59 µM, the “increase in cell number in the S phase” value (HEK293T cells [1]) is reported as “more than 20%” and the “increase in cell death” value (HEK293T cells [2]) is reported as ~ 30%.
